Measured values published in publication PMC10866072, “Design, synthesis, molecular modelling and biological evaluation of novel 6-amino-5-cyano-2-thiopyrimidine derivatives as potent anticancer agents against leukemia and apoptotic inducers” (Journal of Enzyme Inhibition and Medicinal Chemistry, 2024).

Assays:
MDA-MB-231/ATCC = type: cell-based; conditions: one dose 10^-5 M, 48 h; for % growth at 10 µM: Homo sapiens
NCI-H522 = type: cell-based; conditions: Homo sapiens, one dose 10^-5 M, 48 h
RXF 393 = type: cell-based; conditions: Homo sapiens, RXF 393, 48 h, one dose 10^-5 M, 48 h, read-out: % growth
A549/ATCC = type: cell-based; conditions: Homo sapiens, one dose 10^-5 M, 48 h
[1] = system: full NCI 60 cell lines panel; conditions: Homo sapiens, 60 cell, 48 h, read-out: Mean % growth
SK-MEL-28 = type: cell-based; conditions: Homo sapiens, one dose 10^-5 M, 48 h
ACHN = type: cell-based; conditions: Homo sapiens, one dose 10^-5 M, 48 h
A498 = type: cell-based; conditions: Homo sapiens, one dose 10^-5 M, 48 h
TK-10 = type: cell-based; conditions: Homo sapiens, one dose 10^-5 M, 48 h
HCC-2998 = type: cell-based; conditions: Homo sapiens, one dose 10^-5 M, 48 h
PC-3 = type: cell-based; conditions: Homo sapiens, one dose 10^-5 M, 48 h
K-562 = type: cell-based; conditions: Homo sapiens, K562, one dose 10^-5 M, 48 h
NCI-H460 = type: cell-based; conditions: Homo sapiens, one dose 10^-5 M, 48 h, read-out: % growth
SW-620 = type: cell-based; conditions: Homo sapiens, one dose 10^-5 M, 48 h
SNB-19 = type: cell-based; conditions: Homo sapiens, one dose 10^-5 M, 48 h, read-out: % growth
SF-539 = type: cell-based; conditions: Homo sapiens, one dose 10^-5 M, 48 h
T-47D = type: cell-based; conditions: Homo sapiens, T47D, one dose 10^-5 M, 48 h, read-out: % growth
OVCAR-4 = type: cell-based; conditions: Homo sapiens, one dose 10^-5 M, 48 h
HS 578T = type: cell-based; conditions: Homo sapiens; one dose 10^-5 M, 48 h; HS 578T; read-out: % growth
SNB-75 = type: cell-based; conditions: Homo sapiens, one dose 10^-5 M, 48 h
M14 = type: cell-based; conditions: Homo sapiens, one dose 10^-5 M, 48 h
HL-60(TB) = type: cell-based; conditions: Homo sapiens, one dose 10^-5 M, 48 h
SK-MEL-5 = type: cell-based; conditions: Homo sapiens, one dose 10^-5 M, 48 h, read-out: % growth
UO-31 = type: cell-based; conditions: Homo sapiens, UO-31, 48 h, one dose 10^-5 M, 48 h
CCRF-CEM = type: cell-based; conditions: Homo sapiens, one dose 10^-5 M, 48 h
SR = type: cell-based; conditions: Homo sapiens, one dose 10^-5 M, 48 h
HT29 = type: cell-based; conditions: Homo sapiens, HT-29, one dose 10^-5 M, 48 h
MALME-3M = type: cell-based; conditions: Homo sapiens, one dose 10^-5 M, 48 h
UACC-257 = type: cell-based; conditions: Homo sapiens, one dose 10^-5 M, 48 h
NCI-H226 = type: cell-based; conditions: Homo sapiens, one dose 10^-5 M, 48 h
SN12C = type: cell-based, human; conditions: Homo sapiens, one dose 10^-5 M, 48 h
LOX IMVI = type: cell-based; conditions: Homo sapiens, one dose 10^-5 M, 48 h, read-out: % growth
EKVX = type: cell-based; conditions: Homo sapiens, one dose 10^-5 M, 48 h
RPMI-8226 = type: cell-based; conditions: Homo sapiens, one dose 10^-5 M, 48 h
HOP-92 = type: cell-based; conditions: Homo sapiens, one dose 10^-5 M, 48 h
MOLT-4 = type: cell-based; conditions: Homo sapiens, one dose 10^-5 M, 48 h, read-out: % growth
HCT-116 = type: cell-based; conditions: Homo sapiens, one dose 10^-5 M, 48 h, read-out: % growth
IGROV1 = type: cell-based; conditions: Homo sapiens, IGROV-1, one dose 10^-5 M, 48 h, read-out: % growth
HOP-62 = type: cell-based; conditions: Homo sapiens, one dose 10^-5 M, 48 h
SK-OV-3 = type: cell-based; conditions: Homo sapiens, one dose 10^-5 M, 48 h
U251 = type: cell-based; conditions: Homo sapiens, U-251, one dose 10^-5 M, 48 h
OVCAR-8 = type: cell-based; conditions: Homo sapiens, one dose 10^-5 M, 48 h
SK-MEL-2 = type: cell-based; conditions: Homo sapiens, one dose 10^-5 M, 48 h
HCT-15 = type: cell-based; conditions: Homo sapiens, one dose 10^-5 M, 48 h, read-out: % growth
NCI-H23 = type: cell-based; conditions: Homo sapiens, one dose 10^-5 M, 48 h, read-out: % growth
CAKI-1 = type: cell-based; conditions: Homo sapiens, CAKI-1, 48 h, one dose 10^-5 M, 48 h
DU-145 = type: cell-based; conditions: Homo sapiens, one dose 10^-5 M, 48 h
MCF7 = type: cell-based; conditions: Homo sapiens, one dose 10^-5 M, 48 h, read-out: % growth
KM12 = type: cell-based; conditions: Homo sapiens, one dose 10^-5 M, 48 h
MDA-MB-468 = type: cell-based; conditions: Homo sapiens, one dose 10^-5 M, 48 h
OVCAR-5 = type: cell-based; conditions: Homo sapiens, one dose 10^-5 M, 48 h
MDA-MB-435 = type: cell-based; conditions: Homo sapiens, one dose 10^-5 M, 48 h, read-out: % growth
786-0 = type: cell-based; conditions: Homo sapiens, one dose 10^-5 M, 48 h
SF-268 = type: cell-based; conditions: Homo sapiens, one dose 10^-5 M, 48 h, read-out: % growth
SF-295 = type: cell-based; conditions: Homo sapiens, one dose 10^-5 M, 48 h
OVCAR-3 = type: cell-based; conditions: Homo sapiens, one dose 10^-5 M, 48 h
UACC-62 = type: cell-based; conditions: Homo sapiens, one dose 10^-5 M, 48 h

For `N=C(NN=Cc1ccc(Br)cc1)c1c(N)nc(S)nc1-c1ccc(Cl)cc1` [Compound 4k, 4-amino-N'-[(4-bromophenyl)methylene]-6–(4-chlorophenyl)-2-mercapto pyrimidine-5-carboximidohydrazide], the % growth at 10 µM (MDA-MB-231/ATCC) was -1.21%, the “% growth” value (MDA-MB-231/ATCC) was -1.21% and the % growth at 10 µM (NCI-H522) was 73.5%. The activity at 10 µM (RXF 393) was 82.5%, the % growth at 10 µM (A549/ATCC) was 55.3% and the activity at 10 µM [1] was 76.8%. The % cell growth at 10 µM (SK-MEL-28) was 105%, the % growth at 10 µM (ACHN) was 77.3% and the % growth at 10 µM (A498) was 88.4%. It also gave a % cell growth at 10 µM (TK-10) of 116%, a % growth at 10 µM (HCC-2998) of 111% and a percent cell growth at 10 µM (PC-3) of 70.5%. It also gave a % growth at 10 µM (K-562) of 67.8%, an activity at 10 µM (NCI-H460) of 73.4% and a % growth at 10 µM (SW-620) of 95.6%. The activity at 10 µM (SNB-19) was 80.4%, the % growth at 10 µM (SF-539) was 71.2% and the activity at 10 µM (T-47D) was 54.8%. It also gave a % growth at 10 µM (OVCAR-4) of 76.7%, an activity at 10 µM (HS 578T) of 42.6% and a % growth at 10 µM (SNB-75) of 35.5%. The % growth at 10 µM (M14) was 76.5%, the % growth at 10 µM (HL-60(TB)) was 119% and the activity at 10 µM (SK-MEL-5) was 93.3%. It also gave a % cell growth at 10 µM (UO-31) of 47.8%, a % cell growth at 10 µM (CCRF-CEM) of 43.4% and a percent cell growth at 10 µM (SR) of 62.4%. The % growth at 10 µM (HT29) was 102%, the % growth at 10 µM (MALME-3M) was 119% and the percent cell growth at 10 µM (UACC-257) was 81.4%. It also gave a % growth at 10 µM (NCI-H226) of 98%, a % growth at 10 µM (SN12C) of 87.7% and an activity at 10 µM (LOX IMVI) of 92.3%. For the same compound, the % cell growth at 10 µM (EKVX) was 66.3%, the % growth at 10 µM (RPMI-8226) was 56.8% and the % growth at 10 µM (HOP-92) was 19%. For the same compound, the activity at 10 µM (MOLT-4) was 54.6%, the activity at 10 µM (HCT-116) was 69.6% and the activity at 10 µM (IGROV1) was 68.2%. The % growth at 10 µM (HOP-62) was 98%, the % growth at 10 µM (SK-OV-3) was 78.7% and the % growth at 10 µM (U251) was 77.1%. For the same compound, the % growth of cells at 10 µM (OVCAR-8) was 63.7%, the % growth at 10 µM (SK-MEL-2) was 96% and the activity at 10 µM (HCT-15) was 73.4%. It also gave an activity at 10 µM (NCI-H23) of 71.8%, a % growth at 10 µM (CAKI-1) of 62.4% and a % growth at 10 µM (DU-145) of 83.9%. It also gave an activity at 10 µM (MCF7) of 57.5%, a % growth at 10 µM (KM12) of 76.2% and a percent cell growth at 10 µM (MDA-MB-468) of 84.6%. It also gave a percent cell growth at 10 µM (OVCAR-5) of 97%, an activity at 10 µM (MDA-MB-435) of 87.8% and a % growth at 10 µM (786-0) of 89.9%. The activity at 10 µM (SF-268) was 90.2%, the % cell growth at 10 µM (SF-295) was 91.2% and the % growth at 10 µM (OVCAR-3) was 101%. For the same compound, the % growth at 10 µM (UACC-62) was 82.4%.
Work on `N=C(NN=Cc1ccc(Cl)cc1Cl)c1c(N)nc(S)nc1-c1ccc(Cl)cc1` [Compound 4l, 4-amino-6–(4-chlorophenyl)-N'-[(2,4-dichlorophenyl)methylene]-2-mercapto pyrimidine-5-carboximidohydrazide] yielded a % growth at 10 µM (MDA-MB-231/ATCC) of 52.7%, a % growth at 10 µM (NCI-H522) of 62.3% and an activity at 10 µM (RXF 393) of 31.2%. The % growth at 10 µM (A549/ATCC) was 90.7%, the activity at 10 µM [1] was 68.3% and the % cell growth at 10 µM (SK-MEL-28) was 75.8%. The % growth at 10 µM (ACHN) was 53.2%, the % growth at 10 µM (A498) was 6.77% and the % cell growth at 10 µM (TK-10) was 98.8%. For the same compound, the % growth at 10 µM (HCC-2998) was 95%, the percent cell growth at 10 µM (PC-3) was 48% and the % growth at 10 µM (K-562) was 77.1%. It also gave an activity at 10 µM (NCI-H460) of 66.3%, a % growth at 10 µM (SW-620) of 95.8% and an activity at 10 µM (SNB-19) of 84%. It also gave a % growth at 10 µM (SF-539) of 70.3%, an activity at 10 µM (T-47D) of 28.1% and a % growth at 10 µM (OVCAR-4) of 79.2%. The activity at 10 µM (HS 578T) was 36.4%, the % growth at 10 µM (SNB-75) was 26.1% and the % growth at 10 µM (M14) was 76.2%. It also gave a % growth at 10 µM (HL-60(TB)) of 101%, an activity at 10 µM (SK-MEL-5) of 81% and a % cell growth at 10 µM (UO-31) of 43.2%. For the same compound, the % cell growth at 10 µM (CCRF-CEM) was 64.6%, the percent cell growth at 10 µM (SR) was 65.6% and the % growth at 10 µM (HT29) was 87%. The % growth at 10 µM (MALME-3M) was 43.4%, the percent cell growth at 10 µM (UACC-257) was 96.5% and the % growth at 10 µM (NCI-H226) was 62.4%. It also gave a % growth at 10 µM (SN12C) of 65.5%, an activity at 10 µM (LOX IMVI) of 69.4% and a % cell growth at 10 µM (EKVX) of 59%. The % growth at 10 µM (RPMI-8226) was 46.5%, the % growth at 10 µM (HOP-92) was 54.9% and the activity at 10 µM (MOLT-4) was 66.4%. For the same compound, the activity at 10 µM (HCT-116) was 84.2%, the activity at 10 µM (IGROV1) was 44.9% and the % growth at 10 µM (HOP-62) was 53%. It also gave a % growth at 10 µM (SK-OV-3) of 82.1%, a % growth at 10 µM (U251) of 93.9% and a % growth of cells at 10 µM (OVCAR-8) of 90%. For the same compound, the % growth at 10 µM (SK-MEL-2) was 83.3%, the activity at 10 µM (HCT-15) was 77.4% and the activity at 10 µM (NCI-H23) was 78.3%. The % growth at 10 µM (CAKI-1) was 37%, the % growth at 10 µM (DU-145) was 79.3% and the activity at 10 µM (MCF7) was 53.1%. For the same compound, the % growth at 10 µM (KM12) was 79.8%, the percent cell growth at 10 µM (MDA-MB-468) was 88.4% and the percent cell growth at 10 µM (OVCAR-5) was 73.2%. For the same compound, the activity at 10 µM (MDA-MB-435) was 89%, the % growth at 10 µM (786-0) was 88.6% and the activity at 10 µM (SF-268) was 73.6%. The % cell growth at 10 µM (SF-295) was 85%, the % growth at 10 µM (OVCAR-3) was 80.2% and the % growth at 10 µM (UACC-62) was 43.1%.
